Data set [1] can be described thus: RP-HPLC determination of peptide hydrophobicity. The following applies: 0.1% TFA; for reduced retention time t’R: RP-HPLC retention as measure of hydrophobicity, Waters X-Bridge Shield RP-18 3.0 × 100 mm, 3.5 μm, linear 20–65% acetonitrile in water over 30 min, 0.5 mL/min, 25.0 °C, UV 214 nm, 1 g/L, triplicate. In kind it is physicochemical. The method, then: The peptides were analyzed by RP-HPLC to determine relative hydrophobicity vs. retention time of each compound. In general, more hydrophobic lipopeptides will elute later than hydrophilic ones. Using this simple rule enables comparison of hydrophobicity by reduced retention times (t’R) and differences in retention time between the cyclic analog and its linear parent lipopeptide (Table 1). It can be deduced that the presence of cystine moiety has led to increased hydrophobicity. All cyclic lipopeptides are more hydrophobic than their linear counterparts but the effect of disulfide cyclization on retention is different in each pair. The highest increase in retention was noticed for the shortest lipopeptides L1 (C16-KKK-NH2) and C1 (C16-CKKKC-NH2). The differences between lipopeptides with one arginine residue indicate that its position is crucial for retention and therefore hydrophobicity. To learn how the arginine position affects hydrophobicity, the retention time of compound L2 (C16-KKKK-NH2) or C2 (C16-CKKKKC-NH2) was subtracted from that of the lipopeptides with one arginine residue, linear (L3, L4, L5, L6) or cyclic (C3, C4, C5, C6), respectively. In Figure 2 the effect of arginine position on retention time is related to unsubstituted lipopeptide.
To determine peptide hydrophobicity, a Waters Alliance e2695 system with a Waters 2998 PDA Detector (software-Empower 3, Waters, Milford, MA, USA) was used. All analyses were carried out on a Waters X-Bridge Shield RP-18 column (3.0 × 100 mm, 3.5 μm particle size, 130 Å pore size). The Shield Technology column with embedded polar groups was used to minimize interactions of unreacted silanol groups with basic lipopeptides. The peptides were dissolved in water (0.1% TFA, v/v) up to a concentration of 1 g/L. UV detection at 214 nm was used, and samples (10 μL) were eluted with a linear 20–65% acetonitrile gradient in deionized water over 30 min at 25.0 ± 0.1 °C. The mobile phase flow rate was 0.5 mL/min. Both eluents contained 0.1% (v/v) of TFA. Each peptide sample was analyzed in triplicate. Maximum standard deviation and coefficient of variation were 0.042 and 0.25%, respectively.

Data set [2] relates to Escherichia coli ATCC 25922. Format: cell-based. The following applies: ATCC 25922, 18 h. On the procedure: (§1) The Staphylococcus aureus ATCC 25923, Staphylococcus epidermidis ATCC 14990, Escherichia coli ATCC 25922, Pseudomonas aeruginosa ATCC 9027, Candida albicans ATCC 10231, Candida glabrata ATCC 15126, Candida lipolytica PCM 2680-FY, and Candida tropicalis PCM 2709-FY strains were acquired from the Polish Collection of Microorganisms (PCM, Polish Academy of Sciences, Wrocław, Poland) and from the American Type Culture Collection (ATCC). All the strains were stored at −80 °C in Roti-Store cryo vials and before the tests were transferred into fresh Mueller–Hinton broth (MHB, Biocorp, Warsaw, Poland) for bacteria or RPMI-1640 (Sigma-Aldrich, Steinheim, Germany) for fungi and incubated for 24 h at 37 °C. Then, the cultures were seeded on Mueller–Hinton agar (BioMaxima, Lublin, Poland) or Sabouraud dextrose agar (SDA, BioMaxima, Lublin, Poland) plates, respectively, and incubated as just mentioned. These agar cultures were used for further microbiological assays. Cell densities for all assays were adjusted spectrophotometrically (Multiskan GO Microplate Spectrophotometer, Thermo Fisher Scientific, Vantaa, Finland) at 600 and 660 nm for bacteria and fungi, respectively.
(§2) The MICs were determined by broth microdilution method according to the Clinical and Laboratory Standard Institute guidelines For this purpose, initial inoculums of bacteria (5 × 10^5 CFU/mL) in MHB and yeasts (2 × 10^3 CFU/mL) in RPMI-1640 with 2% D-glucose were exposed to the ranging concentration of lipopeptides (0.5–256 μg/mL) and incubated at 37 °C for 18 h and 24 h, respectively. The experiments were conducted on 96-well microtiter polystyrene plates. The growth was assessed visually after incubation and the MIC was assumed as the lowest peptide concentration at which a noticeable growth of microorganisms was inhibited. All experiments were conducted in triplicate.

In data set [3] the test system is Candida glabrata ATCC 15126. Format: cell-based. The following applies: ATCC 15126, 24 h. The method, then: as §1, §2
Data set [4] relates to Candida lipolytica PCM 2680-FY. In kind it is cell-based. The following applies: 24 h. On the procedure: as §1, §2
Data set [5] has as its system Pseudomonas aeruginosa ATCC 9027. In kind it is cell-based. The following applies: ATCC 9027, 18 h. On the procedure:
as §1, §2

Data set [6] has as its system Escherichia coli ATCC 25922. Format: cell-based. The following applies: ATCC 25922, 24 h. The method, then: as §1
(§3) MBECs were determined on 96-well polystyrene flat-bottom plates. For this purpose, 24 h cultures of microorganisms were diluted to obtain final density 5.0 × 10^5 CFU/mL and 2.0 × 10^5 CFU/mL of bacteria and fungi, respectively. Briefly, 100 µL of cell suspension was added into the test plates. After 24 h of incubation at 37 °C the wells were rinsed three times with a phosphate buffer saline (PBS, pH 7.4) to remove non-adherent cells. Subsequently, 100 μL of the test compounds in concentration range (0.5–256 μg/mL) were added to each well. After 24 h of incubation at 37 °C, 20 μL of a cell viability reagent was added (resazurin, 4 g/L; Sigma Aldrich, St. Louis, MO, USA). The MBEC was read after 1 h. The determined values were recorded as the lowest concentration at which the reduction of resazurin (from blue to pink) was lower or equal to 10 ± 0.5% as compared to the positive (100%) and negative (0%) controls. The reduction was monitored by measuring absorbance at 570 nm (reduced) and 600 nm (oxidized) using a microplate spectrophotometer (Multiskan GO Microplate Spectrophotometer, Thermo Fisher Scientific, Vantaa, Finland). All experiments were conducted in triplicate.

In data set [7] the test system is Candida glabrata ATCC 15126. In kind it is cell-based. The following applies: ATCC 15126, 24 h. The method, then:
as §1, §3
This is another data set of the same source.

The test system of data set [8] is Candida albicans ATCC 10231. Format: cell-based. The following applies: ATCC 10231, 24 h. The method, then:
as §1, §3

Data set [9] has as its system Candida lipolytica PCM 2680-FY. In kind it is cell-based. The following applies: 24 h. The method, then: as §1, §3
The source holds these as a separate data set.

Data set [10] deals with Staphylococcus epidermidis ATCC 14990. In kind it is cell-based. The following applies: ATCC 14990, 24 h. The method, then: as §1, §3
For data set [11], the system named is Pseudomonas aeruginosa ATCC 9027. In kind it is cell-based. The following applies: ATCC 9027, 24 h. The method, then: as §1, §3
Data set [12] has as its system Candida tropicalis PCM 2709-FY. In kind it is cell-based. The following applies: PCM 2709-FY, 24 h. The method, then:
as §1, §3

Consider 2 compounds from article PMC7582905, “Effect of Disulfide Cyclization of Ultrashort Cationic Lipopeptides on Antimicrobial Activity and Cytotoxicity” (International Journal of Molecular Sciences, 2020).

≈ marks a conversion by molar mass, not a printed value. Where a SMILES comes first, the peptide text is derived from it. Bridges are numbered along the chain shown (N, C = ends). The star is where a group is joined. Palmitoyl = CCCCCCCCCCCCCCCC(=O)*

For `CCCCCCCCCCCCCCCC(=O)N[C@H]1CSSC[C@@H](C(N)=O)NC(=O)[C@H](CCCCN)NC(=O)[C@H](CCCNC(=N)N)NC(=O)[C@H](CCCCN)NC(=O)[C@H](CCCCN)NC1=O` [C5, C16-CKKRKC-NH2] (Palmitoyl-CKKRKC-NH2; disulfide 1-6), the “reduced retention time t’R” value in data set [1] was found to be 16.16 min. In addition, the “∆tR” value in [1] (tR of cyclic analog − tR of parent lipopeptide, RP-HPLC, RP-18, 20–65% acetonitrile over 30 min) was “+1.15 min”. Further, in data set [2], the “MIC E. coli” value was determined as 16 µg/mL (≈ 16 µM). In [3], the “MIC C. glabrata” value turned out to be 8 µg/mL (≈ 8 µM). In addition, in [4], the “MIC C. lipolytica” value stood at 4 µg/mL (≈ 4 µM). Further, the “MIC P. aeruginosa” value in [5] worked out at 256 µg/mL (≈ 256 µM). For the same compound, the “MBEC E. coli” value in data set [6] was determined as 128 µg/mL. For the same compound, in [7], the “MBEC C. glabrata” value was 64 µg/mL. Also, in data set [8], the “MBEC C. albicans” value amounted to 64 µg/mL. In data set [9], the “MBEC C. lipolytica” value was 16 µg/mL. Also, the “MBEC S. epidermidis” value in data set [10] turned out to be 64 µg/mL. For the same compound, in data set [11], the “MBEC P. aeruginosa” value was 256 µg/mL. The “MBEC C. tropicalis” value in [12] was determined as 32 µg/mL.
For the compound `CCCCCCCCCCCCCCCC(=O)N[C@@H](CCCNC(=N)N)C(=O)N[C@@H](CCCCN)C(=O)N[C@@H](CCCCN)C(=O)N[C@@H](CCCCN)C(N)=O` [L3, C16-RKKK-NH2] (Palmitoyl-RKKK-NH2), the “reduced retention time t’R” value in [1] is given as 15.21 min. In addition, the “MIC E. coli” value in data set [2] came out at 8 µg/mL (≈ 10 µM). Besides, the “MIC C. glabrata” value in [3] was 64 µg/mL (≈ 80.4 µM). The “MIC C. lipolytica” value in data set [4] stood at 8 µg/mL (≈ 10 µM). In data set [5], the “MIC P. aeruginosa” value was 32 µg/mL (≈ 40.2 µM). The “MBEC E. coli” value in [6] came to 128 µg/mL. For the same compound, the “MBEC C. glabrata” value in data set [7] was determined as 128 µg/mL. Also, the “MBEC C. albicans” value in data set [8] came to 128 µg/mL. Moreover, the “MBEC C. lipolytica” value in [9] was 32 µg/mL. Besides, the “MBEC S. epidermidis” value in [10] amounted to 32 µg/mL. For the same compound, the “MBEC P. aeruginosa” value in [11] amounted to 256 µg/mL. For the same compound, the “MBEC C. tropicalis” value in data set [12] worked out at 32 µg/mL.
